Data as given in patent publication US12187729B2, “Compounds having PDE9A inhibitory activity, and pharmaceutical uses thereof” (KOREA RESEARCH INSTITUTE OF CHEMICAL TECHNOLOGY, priority 2018, dated 2025).

Target: PDE9A (Homo sapiens (Human), UniProt O76083)
Test: PDE9A inhibitory activity, fluorescence polarization assay (IMAP-FP screening express kit)
Format: biochemical
Details: enzyme PDE9A 5 ng/ml, Fl-cGMP substrate 100 nM, room temperature 1 hour
Procedure: The inhibitory activity of the representative compounds according to the present invention against phosphodiesterase 9A was tested based on the polarization assay (IMAP-FP screening express kit) provided by MDS (MDS Analytical Technologies, Sunyvale, CA, USA). As a buffer solution, a reaction solution (a reaction solution containing 0.01% Tween 20 provided by MDS was diluted 5 times, then 5 mM DTT is added) and a polarization detection solution (binding solution A and B provided by MDS were mixed at a ratio of 3:1 and IMAP binding reagent 1/600 was added) were prepared. 100 μM of the substrate (Fl-cGMP substrate; MDS) and 3.6 μg/ml of the enzyme PDE9A (ab54113; abeam) were prepared. 3.6 μg/ml PDE9A and 100 μM substrate were diluted to 20 ng/ml (final reaction concentration: 5 ng/ml) and 400 nM (final reaction concentration: 100 nM), respectively. The buffer solution used for all dilution and preparation processes was 1× reaction solution with 1 mM DTT added, and the polarization detection solution was used to induce polarization at the end.
The prepared samples were dispensed on black microplates (Multiwell 384 well plates, #3573, Corning Life Sciences, Lowell, MA, USA) using a 16-channel pipette (multi 16-channel, Finnpipette, Thermo Scientific, Essex, UK). The total reaction volume per well is 20 μl. At this time, 10 μl of 2% DMSO, 5 μl of substrate solution, and 5 μl of reaction solution were used as a negative control, and 10 μl of 2% DMSO, 5 μl of substrate solution, and 5 μl of PDE9A solution were used as a positive control. As the experimental group, 10 μl of the compound prepared in Example, 5 μl of the substrate solution, and 5 μl of the PDE9A solution were used. After pretreatment between the compound and the enzyme was performed for about […] before the enzyme-substrate reaction, 5 μl of cGMP was added to induce the enzyme reaction. During the reaction, each compound, enzyme, and substrate occupied 50%, 25%, and 25% of the total volume, respectively, and they were prepared at high concentrations of 2, 4, and 4 times, respectively, immediately before addition. After the enzymatic reaction, it was shaken lightly for 1 minute and the enzyme reaction was induced at room temperature for 1 hour. Then, 60 μl of a polarization detection solution prepared in advance was added to induce polarization.
Nanoparticles composed of trivalent metal ions are mixed in the fluorescence detection solution, which combines with phosphoric acid expose by enzymatic reaction to increase the molecular weight and induce polarization. After leaving for 2 hours at room temperature, the polarization (Fluorescence Polarization, FP) value was measured using a multilabel counter (Envision, PerkinElmer, Turku, Finland) (emission wavelength: P-535 nm, S-535 nm, excitation wavelength: 480 nm), and the result was expressed as an IC50 value, which is the concentration of the compound that inhibited PDE9A by 50% in vitro (Table 2).

PDE9A, sequence (O76083 whole entry): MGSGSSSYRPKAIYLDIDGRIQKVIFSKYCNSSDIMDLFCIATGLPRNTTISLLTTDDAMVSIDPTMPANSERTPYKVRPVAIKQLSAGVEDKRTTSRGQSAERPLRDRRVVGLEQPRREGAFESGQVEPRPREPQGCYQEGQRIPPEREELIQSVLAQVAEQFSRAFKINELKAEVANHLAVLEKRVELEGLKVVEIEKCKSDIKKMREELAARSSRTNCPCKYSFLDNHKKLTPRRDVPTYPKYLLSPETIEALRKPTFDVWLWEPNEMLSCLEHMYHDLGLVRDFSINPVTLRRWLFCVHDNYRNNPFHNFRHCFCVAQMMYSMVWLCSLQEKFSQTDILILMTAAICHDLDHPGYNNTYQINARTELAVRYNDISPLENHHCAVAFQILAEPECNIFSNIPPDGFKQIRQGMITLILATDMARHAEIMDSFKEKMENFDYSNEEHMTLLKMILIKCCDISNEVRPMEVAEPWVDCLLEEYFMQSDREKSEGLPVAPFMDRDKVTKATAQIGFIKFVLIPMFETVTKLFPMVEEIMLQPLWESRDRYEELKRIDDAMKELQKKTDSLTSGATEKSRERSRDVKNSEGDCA

First: CCSc1nnc(NC(=O)C(Sc2nc3c(cnn3-c3ccccc3)c(=O)[nH]2)c2ccccc2)s1 (stereo not drawn) [Example 26, N-(5-(ethylthio)-1,3,4-thiadiazol-2-yl)-2-((4-oxo-1-phenyl-4,5-dihydro-1H-pyrazolo[3,4-d]pyrimidin-6-yl)thio)-2-phenylacetamide]
Second: Cc1nnc(NC(=O)CSc2nc3c(cnn3-c3ccccc3)c(=O)[nH]2)s1 [Example 3, N-(5-methyl-1,3,4-thiadiazol-2-yl)-2-((4-oxo-1-phenyl-4,5-dihydro-1H-pyrazolo[3,4-d]pyrimidin-6-yl)thio)acetamide]
The IC50 of the first is 38-fold lower: 9 nM for the first, 340 nM for the second.

Compared with `O=C(CSc1nc2c(cnn2-c2ccccc2)c(=O)[nH]1)Nc1nnc(SCc2ccccc2)s1` [Example 6], `O=C(CSc1nc2c(cnn2C2CCCCC2)c(=O)[nH]1)Nc1nnc(Cl)s1` [Example 42, N-(5-chloro-1,3,4-thiadiazol-2-yl)-2-((4-oxo-1-cyclohexyl-4,5-dihydro-1H-pyrazolo[3,4-d]pyrimidin-6-yl)thio)acetamide] is 14-fold lower in IC50: 14 nM for the first, 1 nM for the second.

Going from `CCSc1nnc(NC(=O)CSc2nc3c(cnn3C3CCC(F)(F)CC3)c(=O)[nH]2)s1` [Example 19, 2-((1-(4,4-difluorocyclohexyl)-4-oxo-4,5-dihydro-1H-pyrazolo[3,4-d]pyrimidine-6-yl)thio)-N-(5-(ethylthio)-1,3,4-thiadiazol-2-yl)acetamide] to `CCSc1nnc(NC(=O)C(C)Sc2nc3c(cnn3C3CCC(F)(F)CC3)c(=O)[nH]2)s1` (stereo not drawn) [Example 28, 2-((1-(4,4-difluorocyclohexyl)-4-oxo-4,5-dihydro-1H-pyrazolo[3,4-d]pyrimidin-6-yl)thio)-N-(5-(ethylthio)-1,3,4-thiadiazol-2-yl)propanamide], the IC50 falls from 0.6 nM to 0.1 nM (6-fold).

First: CCSc1nnc(N(C)C(=O)CSc2nc3c(cnn3-c3ccccc3)c(=O)[nH]2)s1 [Example 18, N-(5-(ethylthio)-1,3,4-thiadiazol-2-yl)-N-methyl-2-((4-oxo-1-phenyl-4,5-dihydro-1H-pyrazolo[3,4-d]pyrimidin-6-yl)thio)acetamide]
Second: O=C(CSc1nc2c(cnn2C2CCSCC2)c(=O)[nH]1)Nc1nnc(Br)s1 [Example 32, N-(5-bromo-1,3,4-thiadiazol-2-yl)-2-((4-oxo-1-(tetrahydro-2H-thiopyran-4-yl)-4,5-dihydro-1H-pyrazolo[3,4-d]pyrimidin-6-yl)thio)acetamide]
The IC50 of the first is 780-fold higher: 470 nM for the first, 0.6 nM for the second.

Going from `O=C(CSc1nc2c(cnn2C2CC2)c(=O)[nH]1)Nc1nnc(Cl)s1` [Example 44, N-(5-chloro-1,3,4-thiadiazol-2-yl)-2-((1-cyclopropyl-4-oxo-4,5-dihydro-1H-pyrazolo[3,4-d]pyrimidin-6-yl)thio)acetamide] to `CC(Sc1nc2c(cnn2-c2ccccc2)c(=O)[nH]1)C(=O)Nc1nnc(Br)s1` (stereo not drawn) [Example 12, N-(5-bromo-1,3,4-thiadiazol-2-yl)-2-((4-oxo-1-phenyl-4,5-dihydro-1H-pyrazolo[3,4-d]pyrimidin-6-yl)thio)propanamide], the IC50 falls from 36 nM to 7 nM (5.1-fold). The second is the more potent here.

Going from `O=C(CSc1nc2c(cnn2-c2ccccc2)c(=O)[nH]1)Nc1nncs1` [Example 4, 2-((4-oxo-1-phenyl-4,5-dihydro-1H-pyrazolo[3,4-d]pyrimidin-6-yl)thio)-N-(1,3,4-thiadiazol-2-yl)acetamide] to “N-(5-(isopropylthio)-1,3,4-thiadiazol-2-yl)-2-((4-oxo-1-phenyl-4,5-dihydro-1H-pyrazolo[3,4-d]pyrimidin-6-yl)thio)acetamide [Example 14]”, the IC50 falls from 230 nM to 9 nM (26-fold).

Going from `O=C(CSc1nc2c(cnn2-c2ccccc2)c(=O)[nH]1)Nc1nnc(-c2ccc(F)cc2)s1` [Example 23, N-(5-(4-fluorophenyl)-1,3,4-thiadiazol-2-yl)-2-((4-oxo-1-phenyl-4,5-dihydro-1H-pyrazolo[3,4-d]pyrimidin-6-yl)thio)acetamide] to `O=C(CSc1nc2c(cnn2C2CCC(F)(F)CC2)c(=O)[nH]1)Nc1nnc(Br)s1` [Example 21, 2-((1-(4,4-difluorocyclohexyl)-4-oxo-4,5-dihydro-1H-pyrazolo[3,4-d]pyrimidin-6-yl)thio)-N-(5-bromo-1,3,4-thiadiazol-2-yl)acetamide], the IC50 falls from 10 nM to 0.4 nM (25-fold). The second is the more potent here.

Going from `O=C(CSc1nc2c(cnn2C2CCSCC2)c(=O)[nH]1)Nc1nnc(Cl)s1` [Example 39, N-(5-chloro-1,3,4-thiadiazol-2-yl)-2-((4-oxo-1-(tetrahydro-2H-thiopyran-4-yl)-4,5-dihydro-1H-pyrazolo[3,4-d]pyrimidin-6-yl)thio)acetamide] to `CCSc1nnc(NC(=O)CSc2nc3c(cnn3C3CC3)c(=O)[nH]2)s1` [Example 40, N-(5-(ethylthio)-1,3,4-thiadiazol-2-yl)-2-((1-cyclopropyl-4-oxo-4,5-dihydro-1H-pyrazolo[3,4-d]pyrimidin-6-yl)thio)acetamide], the IC50 rises from 1 nM to 39 nM (39-fold). The first is the more potent here.

Going from `CCSc1nnc(NC(=O)CSc2nc3c(cnn3C3CCCCC3)c(=O)[nH]2)s1` [Example 34, N-(5-(ethylthio)-1,3,4-thiadiazol-2-yl)-2-((4-oxo-1-cyclohexyl-4,5-dihydro-1H-pyrazolo[3,4-d]pyrimidin-6-yl)thio)acetamide] to `CC(C)(C)c1nnc(NC(=O)CSc2nc3c(cnn3-c3ccccc3)c(=O)[nH]2)s1` [Example 22, N-(5-(tertiary-butyl)-1,3,4-thiadiazol-2-yl)-2-((4-oxo-1-phenyl-4,5-dihydro-1H-pyrazolo[3,4-d]pyrimidin-6-yl)thio)acetamide], the IC50 rises from 1 nM to 100 nM (100-fold). The first is the more potent here.

`O=C(CSc1nc2c(cnn2-c2ccc(F)cc2)c(=O)[nH]1)Nc1nnc(Br)s1` [Example 17, N-(5-bromo-1,3,4-thiadiazol-2-yl)-2-((1-(4-fluorophenyl)-4-oxo-4,5-dihydro-1H-pyrazolo[3,4-d]pyrimidin-6-yl)thio)acetamide] and `Cc1ccc(-c2nnc(NC(=O)C(C)Sc3nc4c(cnn4-c4ccccc4)c(=O)[nH]3)s2)cc1` (stereo not drawn) [Example 20, 2-((4-oxo-1-phenyl-4,5-dihydro-1H-pyrazolo[3,4-d]pyrimidin-6-yl)thio)-N-(5-(p-tolyl)-1,3,4-thiadiazol-2-yl)propanamide] are within 1.5-fold of each other in IC50: 27 nM for the first, 19 nM for the second.

Compared with `CC(Sc1nc2c(cnn2C2CCOCC2)c(=O)[nH]1)C(=O)Nc1nnc(Cl)s1` (stereo not drawn) [Example 47, N-(5-chloro-1,3,4-thiadiazol-2-yl)-2-((4-oxo-1-(tetrahydro-2H-pyran-4-yl)-4,5-dihydro-1H-pyrazolo[3,4-d]pyrimidin-6-yl)thio)propanamide], `O=C(CSc1nc2c(cnn2-c2ccccc2)c(=O)[nH]1)Nc1nnc(-c2ccccc2)s1` [Example 25, N-(5-phenyl-1,3,4-thiadiazol-2-yl)-2-((4-oxo-1-phenyl-4,5-dihydro-1H-pyrazolo[3,4-d]pyrimidin-6-yl)thio)acetamide] is 120-fold higher in IC50: 0.1 nM for the first, 12 nM for the second. The first is the more potent here.

First: Cc1ccc(-c2nnc(NC(=O)CSc3nc4c(cnn4-c4ccccc4)c(=O)[nH]3)s2)cc1 [Example 24, 2-((4-oxo-1-phenyl-4,5-dihydro-1H-pyrazolo[3,4-d]pyrimidin-6-yl)thio)-N-(5-(p-tolyl)-1,3,4-thiadiazol-2-yl)acetamide]
Second: O=C(CSc1nc2c(cnn2C2CCCCC2)c(=O)[nH]1)Nc1nnc(Br)s1 [Example 35, N-(5-bromo-1,3,4-thiadiazol-2-yl)-2-((4-oxo-1-cyclohexyl-4,5-dihydro-1H-pyrazolo[3,4-d]pyrimidin-6-yl)thio)acetamide]
The IC50 of the first is 41-fold higher: 41 nM for the first, 1 nM for the second.
